Test results: PubChem BioAssay (NCI)
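Briefly, cells in 96-well plates were exposed to five compound concentrations for 48 h, and endpoints were estimated by linear interpolation. Here, GI50 denotes the concentration required for 50% inhibition of growth. TGI: total growth inhibition.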

Legend:
Assay in all cases: NCI tumour cell line growth inhibition, 48 h
MDA-MB-231 breast = tested on: MDA-MB-231 breast
HCC-2998 colon = tested on: HCC-2998 colon
PC-3 prostate = tested on: PC-3 prostate
EKVX NSCLC = tested on: EKVX NSCLC
LOX IMVI melanoma = tested on: LOX IMVI melanoma
HS 578T breast = tested on: HS 578T breast
SK-MEL-28 melanoma = tested on: SK-MEL-28 melanoma
NCI-H226 lung = tested on: NCI-H226 lung
NCI-H23 lung = tested on: NCI-H23 lung
HCT-116 colon = tested on: HCT-116 colon
ACHN renal = tested on: ACHN renal
SW-620 colon = tested on: SW-620 colon
UACC-62 melanoma = tested on: UACC-62 melanoma
CAKI-1 renal = tested on: CAKI-1 renal
BT-549 breast = tested on: BT-549 breast
NCI/ADR-RES ovarian = tested on: NCI/ADR-RES ovarian
HOP-62 NSCLC = tested on: HOP-62 NSCLC
KM12 colon = tested on: KM12 colon
786-0 renal = tested on: 786-0 renal
HT29 colon = tested on: HT29 colon
A549 NSCLC = tested on: A549 NSCLC
SF-295 CNS = tested on: SF-295 CNS
UACC-257 melanoma = tested on: UACC-257 melanoma
SK-OV-3 ovarian = tested on: SK-OV-3 ovarian
HCT-15 colon = tested on: HCT-15 colon
NCI-H522 lung = tested on: NCI-H522 lung
M14 melanoma = tested on: M14 melanoma
OVCAR-4 ovarian = tested on: OVCAR-4 ovarian
OVCAR-5 ovarian = tested on: OVCAR-5 ovarian
A498 renal = tested on: A498 renal
IGROV1 ovarian = tested on: IGROV1 ovarian
MOLT-4 leukemia = tested on: MOLT-4 leukemia
SK-MEL-5 melanoma = tested on: SK-MEL-5 melanoma
T-47D breast = tested on: T-47D breast
SK-MEL-2 melanoma = tested on: SK-MEL-2 melanoma
TK-10 renal = tested on: TK-10 renal
U251 CNS = tested on: U251 CNS
SF-539 CNS = tested on: SF-539 CNS
RPMI-8226 leukemia = tested on: RPMI-8226 leukemia
COLO 205 colon = tested on: COLO 205 colon
HOP-92 NSCLC = tested on: HOP-92 NSCLC
DU-145 prostate = tested on: DU-145 prostate
CCRF-CEM leukemia = tested on: CCRF-CEM leukemia
K-562 leukemia = tested on: K-562 leukemia
MALME-3M melanoma = tested on: MALME-3M melanoma
SN12C renal = tested on: SN12C renal
SNB-75 CNS = tested on: SNB-75 CNS
OVCAR-3 ovarian = tested on: OVCAR-3 ovarian
OVCAR-8 ovarian = tested on: OVCAR-8 ovarian
MCF7 breast = tested on: MCF7 breast
SNB-19 CNS = tested on: SNB-19 CNS
SR leukemia = tested on: SR leukemia
SF-268 CNS = tested on: SF-268 CNS
NCI-H460 lung = tested on: NCI-H460 lung
UO-31 renal = tested on: UO-31 renal
MDA-MB-435 = tested on: MDA-MB-435
HL-60(TB) leukemia = tested on: HL-60(TB) leukemia

Compound `COc1ccc(C2=NN(C(=O)c3cc(OC)c(OC)c(OC)c3)C(c3ccc(Cl)cc3)C2)cc1OC` (configuration not stated) has a GI50 (MDA-MB-231 breast) of 2.27 µM, a TGI (MDA-MB-231 breast) greater than 68.3 µM and a GI50 (HCC-2998 colon) of 7.61 µM. The TGI (HCC-2998 colon) was greater than 100 µM, the GI50 (PC-3 prostate) was 1.07 µM and the TGI (PC-3 prostate) was greater than 100 µM. For the same compound, the GI50 (EKVX NSCLC) was 5.86 µM, the TGI (EKVX NSCLC) was greater than 100 µM and the GI50 (LOX IMVI melanoma) was 3.63 µM. It also gave a TGI (LOX IMVI melanoma) greater than 100 µM, a GI50 (HS 578T breast) of 3.59 µM and a TGI (HS 578T breast) greater than 42.4 µM. The GI50 (SK-MEL-28 melanoma) was 1.65 µM, the TGI (SK-MEL-28 melanoma) was greater than 55.9 µM and the TGI (NCI-H226 lung) was greater than 57.7 µM. The GI50 (NCI-H23 lung) was 5.78 µM, the TGI (NCI-H23 lung) was greater than 90.1 µM and the GI50 (HCT-116 colon) was 2.04 µM. The TGI (HCT-116 colon) was 19.7 µM, the GI50 (ACHN renal) was 2.32 µM and the TGI (ACHN renal) was 41.3 µM. For the same compound, the GI50 (SW-620 colon) was 1.6 µM, the TGI (SW-620 colon) was greater than 100 µM and the GI50 (UACC-62 melanoma) was 0.549 µM. It also gave a TGI (UACC-62 melanoma) of 15.5 µM, a GI50 (CAKI-1 renal) of 1.14 µM and a TGI (CAKI-1 renal) greater than 54.1 µM. For the same compound, the GI50 (BT-549 breast) was 2.95 µM, the TGI (BT-549 breast) was 71.6 µM and the GI50 (NCI/ADR-RES ovarian) was 1.05 µM. It also gave a GI50 (HOP-62 NSCLC) of 5.24 µM, a TGI (HOP-62 NSCLC) of 32 µM and a GI50 (KM12 colon) of 1.77 µM. For the same compound, the TGI (KM12 colon) was greater than 100 µM, the GI50 (786-0 renal) was 2.14 µM and the TGI (786-0 renal) was 27.5 µM. The GI50 (HT29 colon) was 1.4 µM, the TGI (HT29 colon) was greater than 100 µM and the GI50 (A549 NSCLC) was 4.03 µM. The TGI (A549 NSCLC) was greater than 100 µM, the GI50 (SF-295 CNS) was 0.565 µM and the TGI (SF-295 CNS) was greater than 100 µM. The GI50 (UACC-257 melanoma) was 8.6 µM, the TGI (UACC-257 melanoma) was 77.8 µM and the GI50 (SK-OV-3 ovarian) was 2.89 µM. The TGI (SK-OV-3 ovarian) was 27.4 µM, the GI50 (HCT-15 colon) was 1.79 µM and the TGI (HCT-15 colon) was greater than 100 µM. It also gave a GI50 (NCI-H522 lung) of 1.48 µM, a TGI (NCI-H522 lung) greater than 24.3 µM and a GI50 (M14 melanoma) of 4.66 µM. The TGI (M14 melanoma) was greater than 100 µM, the GI50 (OVCAR-4 ovarian) was 5.22 µM and the TGI (OVCAR-4 ovarian) was 49.6 µM. The GI50 (OVCAR-5 ovarian) was 76.5 µM, the TGI (OVCAR-5 ovarian) was greater than 100 µM and the GI50 (A498 renal) was 0.608 µM. The TGI (A498 renal) was 8.3 µM, the GI50 (IGROV1 ovarian) was 2.11 µM and the TGI (IGROV1 ovarian) was 40 µM. It also gave a GI50 (MOLT-4 leukemia) of 2.73 µM, a TGI (MOLT-4 leukemia) greater than 100 µM and a GI50 (SK-MEL-5 melanoma) of 0.549 µM. It also gave a TGI (SK-MEL-5 melanoma) of 15.6 µM, a GI50 (T-47D breast) of 3.59 µM and a TGI (T-47D breast) greater than 100 µM. For the same compound, the GI50 (SK-MEL-2 melanoma) was 3.71 µM, the TGI (SK-MEL-2 melanoma) was 63.6 µM and the GI50 (TK-10 renal) was 3.63 µM. The TGI (TK-10 renal) was greater than 81.6 µM, the GI50 (U251 CNS) was 3.67 µM and the TGI (U251 CNS) was 42.2 µM. The GI50 (SF-539 CNS) was 2.06 µM, the TGI (SF-539 CNS) was greater than 82.8 µM and the GI50 (RPMI-8226 leukemia) was 0.535 µM. The TGI (RPMI-8226 leukemia) was greater than 100 µM, the GI50 (COLO 205 colon) was 2.44 µM and the TGI (COLO 205 colon) was greater than 100 µM. It also gave a TGI (HOP-92 NSCLC) of 5.41 µM, a GI50 (DU-145 prostate) of 3.62 µM and a TGI (DU-145 prostate) greater than 58.9 µM. For the same compound, the GI50 (CCRF-CEM leukemia) was 2.34 µM, the TGI (CCRF-CEM leukemia) was greater than 100 µM and the GI50 (K-562 leukemia) was 0.777 µM. For the same compound, the TGI (K-562 leukemia) was greater than 100 µM, the GI50 (MALME-3M melanoma) was 3.95 µM and the TGI (MALME-3M melanoma) was 98.9 µM. For the same compound, the GI50 (SN12C renal) was 4.89 µM, the TGI (SN12C renal) was 56 µM and the GI50 (SNB-75 CNS) was 0.746 µM. The TGI (SNB-75 CNS) was 15.2 µM, the GI50 (OVCAR-3 ovarian) was 0.464 µM and the TGI (OVCAR-3 ovarian) was 1.71 µM. It also gave a GI50 (OVCAR-8 ovarian) of 4.63 µM, a TGI (OVCAR-8 ovarian) greater than 58.6 µM and a GI50 (MCF7 breast) of 0.398 µM. It also gave a TGI (MCF7 breast) of 14.7 µM, a GI50 (SNB-19 CNS) of 4.15 µM and a TGI (SNB-19 CNS) of 44 µM. The GI50 (SR leukemia) was 0.448 µM, the TGI (SR leukemia) was greater than 100 µM and the GI50 (SF-268 CNS) was 2.66 µM. It also gave a TGI (SF-268 CNS) of 23.6 µM, a GI50 (NCI-H460 lung) of 2.11 µM and a TGI (NCI-H460 lung) greater than 100 µM. It also gave a GI50 (UO-31 renal) of 1.11 µM and a TGI (UO-31 renal) of 41.8 µM.

Compound `c1cc(-c2ccc(-c3ccc(C4=NC5CCCCC5N4)cc3)o2)ccc1C1=NC2CCCCC2N1` (configuration not stated) has a TGI (HCC-2998 colon) of 2.56 µM, a TGI (PC-3 prostate) of 2.78 µM and a TGI (EKVX NSCLC) of 3.42 µM. It also gave a TGI (ACHN renal) of 5.7 µM, a TGI (SW-620 colon) greater than 100 µM and a TGI (UACC-62 melanoma) of 3.14 µM. The TGI (CAKI-1 renal) was greater than 100 µM, the TGI (NCI/ADR-RES ovarian) was greater than 100 µM and the TGI (786-0 renal) was 2.81 µM. For the same compound, the TGI (HT29 colon) was 2.89 µM, the TGI (A549 NSCLC) was 3.14 µM and the TGI (UACC-257 melanoma) was 3.28 µM. It also gave a TGI (HCT-15 colon) of 79.4 µM, a TGI (M14 melanoma) of 3.01 µM and a TGI (OVCAR-5 ovarian) of 4.55 µM. It also gave a TGI (A498 renal) of 9.04 µM, a TGI (TK-10 renal) of 16.4 µM and a TGI (MDA-MB-435) of 4.84 µM. The TGI (DU-145 prostate) was 3.33 µM, the TGI (CCRF-CEM leukemia) was greater than 100 µM and the TGI (SN12C renal) was 3.03 µM. For the same compound, the TGI (HL-60(TB) leukemia) was 4.86 µM, the TGI (MCF7 breast) was 2.53 µM and the TGI (SNB-19 CNS) was 2.8 µM. The TGI (UO-31 renal) was 6.89 µM.
